Test results as given in patent US8952024B2, “Herbicidal pyrimidone derivatives” (E I du Pont de Nemours and Company, priority 2009, dated 2015).

Experiments:
Format in all cases: in vivo
[1] = system: bermudagrass (Cynodon dactylon); assay: Test B pre-/postemergence plant response; conditions: for Plant response rating, Bermudagrass: Postemergence
Summary of the method: (§1)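 Visually scored on a 0 to 100 scale after 13 to 15 days in greenhouse versus controls. Treatments were preemergence on seeded loam/sand soil and postemergence on 1- to 4-leaf plants.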

[2] = system: blackgrass (Alopecurus myosuroides); assay: Test B pre-/postemergence plant response; conditions: for Plant response rating, Blackgrass: Postemergence
Summary of the method: as §1

[3] = system: cocklebur (Xanthium strumarium); assay: Test B pre-/postemergence plant response; conditions: Postemergence
Summary of the method: as §1

[4] = system: downy bromegrass (Bromus tectorum); assay: Test B pre-/postemergence plant response; conditions: for Plant response rating, Bromegrass, Downy: Postemergence
Summary of the method: as §1

[5] = system: giant foxtail (Setaria faberii); assay: Test B pre-/postemergence plant response; conditions: Postemergence
Summary of the method: as §1

[6] = system: green foxtail (Setaria viridis); assay: Test B pre-/postemergence plant response; conditions: Postemergence
Summary of the method: as §1

[7] = system: johnsongrass (Sorghum halepense); assay: Test B pre-/postemergence plant response; conditions: Postemergence
Summary of the method: as §1

[8] = system: kochia (Kochia scoparia); assay: Test B pre-/postemergence plant response; conditions: Postemergence
Summary of the method: as §1

[9] = system: morningglory (Ipomoea coccinea); assay: Test B pre-/postemergence plant response; conditions: Postemergence
Summary of the method: as §1

[10] = system: ragweed (common ragweed, Ambrosia elatior); assay: Test B pre-/postemergence plant response; conditions: Postemergence
Summary of the method: as §1

[11] = system: soybean (Glycine max); assay: Test B pre-/postemergence plant response; conditions: Postemergence
Summary of the method: as §1

[12] = system: velvetleaf (Abutilon theophrasti); assay: Test B pre-/postemergence plant response; conditions: Postemergence
Summary of the method: as §1

[13] = system: wheat (Triticum aestivum); assay: Test B pre-/postemergence plant response; conditions: Postemergence
Summary of the method: as §1

[14] = system: wild oat (Avena fatua); assay: Test B pre-/postemergence plant response; conditions: Postemergence
Summary of the method: as §1

[15] = system: yellow nutsedge (Cyperus esculentus); assay: Test B pre-/postemergence plant response; conditions: Postemergence
Summary of the method: as §1

[16] = system: canarygrass (Phalaris minor); assay: Test B postemergence plant response; conditions: Postemergence
Summary of the method: (§2)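 Plants grown in peat/vermiculite medium were sprayed postemergence at 2–18 cm height (1- to 4-leaf stage). After 13–15 days in the greenhouse, response was rated visually against untreated controls on a 0–100 scale (0 no effect, 100 complete control).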

[17] = system: chickweed (Stellaria media); assay: Test B postemergence plant response; conditions: Postemergence
Summary of the method: as §2

[18] = system: windgrass (Apera spica-venti); assay: Test B postemergence plant response; conditions: Postemergence
Summary of the method: as §2

[19] = 62 g ai/ha, postemergence, 0 is no effect, 100 is complete control, 13 to 15 days
[20] = 31 g ai/ha, 0 to 100 scale (0 no effect, 100 complete control)
[21] = 125 g ai/ha, scale 0 to 100 (0 no effect, 100 complete control)
[22] = 250 g ai/ha, scale 0 to 100 (0 no effect, 100 complete control), 13 to 15 days

O=C1CCCC(O)=C1C(=O)c1cnc(-c2ccsc2)n(C2CCOCC2)c1=O [Compound 186]
10: Plant response rating, Windgrass [18, 20]
90: Plant response rating, Cocklebur [3, 20]
0: Blackgrass plant response rating (0 to 100 scale) [2, 19] | Plant response rating, Blackgrass [2, 20] | Plant response rating, Wheat [13, 20] | Plant response rating, Wheat [13, 21] | Plant response rating, Oat, Wild [14, 20]
30: Plant response rating, Bromegrass, Downy [4, 21]
25: Bromegrass, Downy plant response rating (0 to 100 scale) [4, 19]
45: Plant response rating, Oat, Wild [14, 22]
5: Plant response rating, Blackgrass [2, 21] | Plant response rating, Bromegrass, Downy [4, 20] | Plant response rating, Wheat [13, 22] | Plant response rating, Canarygrass [16, 20]
80: Bermudagrass plant response rating (0 to 100 scale) [1, 19] | Plant response rating, Bermudagrass [1, 20] | Plant response rating, Nutsedge, Yellow [15, 22]
40: Plant response rating, Canarygrass [16, 21] | Plant response rating, Canarygrass [16, 22]
50: Plant response rating, Bromegrass, Downy [4, 22] | Plant response rating, Foxtail, Green [6, 20] | Plant response rating, Windgrass [18, 21]
75: Plant response rating, Foxtail, Giant [5, 20] | Plant response rating, Johnsongrass [7, 21] | Plant response rating, Kochia [8, 20] | Plant response rating, Nutsedge, Yellow [15, 21]
95: Plant response rating, Bermudagrass [1, 21] | Plant response rating, Foxtail, Giant [5, 21] | Plant response rating, Foxtail, Giant [5, 22] | Plant response rating, Foxtail, Green [6, 22] | Plant response rating, Morningglory [9, 20] | Plant response rating, Chickweed [17, 20]
65: Plant response rating, Johnsongrass [7, 20] | Plant response rating, Nutsedge, Yellow [15, 20] | Plant response rating, Windgrass [18, 22]
100: Plant response rating, Cocklebur [3, 21] | Plant response rating, Cocklebur [3, 22] | Plant response rating, Johnsongrass [7, 22] | Plant response rating, Kochia [8, 21] | Plant response rating, Kochia [8, 22] | Plant response rating, Morningglory [9, 21] | Plant response rating, Morningglory [9, 22] | Plant response rating, Ragweed [10, 21] | Plant response rating, Ragweed [10, 22] | Plant response rating, Soybean [11, 21] | Plant response rating, Soybean [11, 22] | Plant response rating, Velvetleaf [12, 21] | Plant response rating, Velvetleaf [12, 22] | Plant response rating, Chickweed [17, 21] | Plant response rating, Chickweed [17, 22]
85: Plant response rating, Foxtail, Green [6, 21] | Plant response rating, Ragweed [10, 20] | Plant response rating, Soybean [11, 20]
20: Plant response rating, Blackgrass [2, 22] | Plant response rating, Oat, Wild [14, 21]
98: Plant response rating, Bermudagrass [1, 22]
70: Plant response rating, Velvetleaf [12, 20]
